Results taken from patent US7622638B2, “Genetic manipulation of condensed tannins” (priority 2002, dated 2009).

Columns and labels:
MtBAN = experiment: Anthocyanidin reductase activity assay with recombinant MtBAN protein extract (HPLC of products); type: biochemical, Medicago truncatula; details: for conversion of flavan-3-ol into its isomer on incubation with MtBAN: in the presence of NADPH; for reduction of anthocyanidin substrate to flavan-3-ol product(s) by MtBAN: MtBAN protein extract, NADPH, Tris-HCl pH 7.0, 30° C. for 30 min, HPLC
AtBAN = AtBAN (Arabidopsis thaliana, UniProt Q9SEV0); type: biochemical; details: for conversion of flavan-3-ol into its isomer on incubation with AtBAN: in the presence of NADPH; for reduction of anthocyanidin substrate to flavan-3-ol product by AtBAN: AtBAN protein extract (4 month old frozen), NADPH as coenzyme, HPLC
Anthocyanidin reductase [1] = experiment: Anthocyanidin reductase assay with desalted crude enzyme from barley testa tissue; type: biochemical, Hordeum vulgera (barley) cv. morex; details: 100 μM cyanidin, 1 mM NADPH, 30° C. for 30 min
Experimental: (§1) Lotus corniculatus, Desmodium uncinatum and Barley cv. Morex were grown in a green house. Young leaves from L. corniculatus, unexpanded leaves, and young pods as well as open flowers and flower buds from D. uncinatum, and young grains from Barley were collected. Testa of barley grains were excised and pooled together for enzyme extraction. Mature grape fruit stored at −80° C. was treated in pH 7 100 mM Tris.HCl buffer for 30 seconds for isolated the skin for enzyme extraction.
(§2) A fresh one-gram leaf sample of L. corniculatus, one-gram testa from barley, and 9 grams of grape fruit skin, as well as two grams of flowers, 3 grams of young pods and 3 grams of young unexpanded leaves from Desmodium uncinatum were ground into homogenate fine powder in liquid nitrogen. The follow buffer systems were used for enzyme extraction. Extraction buffer 1: pH7 100 mM Tris.HCl, 10% glycerol and 2 mM 1,4-dithiothreitol; Extraction buffer 2: pH8 50 mM phosphate buffer, 10% glycerol, 1.5% polyethyleneglycerol 4000 (PEG-4000), 2 mM pH 8.0 Na-DETA, 25 mM sodium ascorbate, 20 mM β-mecaptoenthanol, and 5 mM 1,4-dithiothreitol; Extraction buffer 3: pH8 100 mM Tris.HCl, 10% glycerol 1.5% polyethyleneglycerol 4000 (PEG-4000), 2 mM pH 8.0 Na-DETA, 25 mM sodium ascorbate, 80 mM β-mecaptoenthanol, and 5 mM 1,4-dithiothreitol. […]

Anthocyanidin reductase [2] = experiment: Anthocyanidin reductase assay with desalted crude enzyme from grape fruit skin; type: biochemical, Vitis vinifer; details: 100 μM cyanidin, 1 mM NADPH, 30° C. for 30 min
Experimental: as §1, §2

Anthocyanidin reductase [3] = experiment: Anthocyanidin reductase assay with desalted crude enzyme from Lotus corniculatus leaves; type: biochemical; details: young leaves; 100 μM cyanidin, 1 mM NADPH, 30° C. for 30 min
Experimental: as §1, §2

[4] = system: Anthocyanidin reductase (ANR); experiment: Anthocyanidin reductase assay with desalted crude enzyme from Desmodium uncinatum tissues; type: biochemical; details: 100 μM cyanidin, 1 mM NADPH
Experimental: as §1
A fresh one-gram leaf sample of L. corniculatus, one-gram testa from barley, and 9 grams of grape fruit skin, as well as two grams of flowers, 3 grams of young pods and 3 grams of young unexpanded leaves from Desmodium uncinatum were ground into homogenate fine powder in liquid nitrogen. The follow buffer systems were used for enzyme extraction. Extraction buffer 1: pH7 100 mM Tris.HCl, 10% glycerol and 2 mM 1,4-dithiothreitol; Extraction buffer 2: pH8 50 mM phosphate buffer, 10% glycerol, 1.5% polyethyleneglycerol 4000 (PEG-4000), 2 mM pH 8.0 Na-DETA, 25 mM sodium ascorbate, 20 mM β-mecaptoenthanol, and 5 mM 1,4-dithiothreitol; Extraction buffer 3: pH8 100 mM Tris.HCl, 10% glycerol 1.5% polyethyleneglycerol 4000 (PEG-4000), 2 mM pH 8.0 Na-DETA, 25 mM sodium ascorbate, 80 mM β-mecaptoenthanol, and 5 mM 1,4-dithiothreitol.
The homogenate powder of lotus leaf and barley testa tissue was suspended in 5 ml extraction buffer 1, in which 1% proteinase inhibitor (Sigma) (V/V) was added. The homogenate powder of flowers and pods from Desmodium was suspended in extraction buffer 2, also in which 1% proteinase inhibitor (Sigma) (V/V) was added. The fine powder of Desmodium leaves or grape fruit skin was respectively suspended in 6 ml or 50 ml extraction buffer 3, in which 1% proteinase inhibitor (Sigma) (V/V) is added. The homogenates were vortexed vigorously and stayed on ice for 5-10 mm, squeezed through microcloth into 50 ml tubes and then 1/5 (W/V) equilibrated Dowex 1×2 was added into collected squeezed mixture solution. […]

[5] = reactions containing leucoanthocyanidins, repeated attempts

Sequence of AtBAN (Q9SEV0 other isoform, or with tags, fused parts or gaps K55Q/I146L/V156I/E157D/T179K/K185E): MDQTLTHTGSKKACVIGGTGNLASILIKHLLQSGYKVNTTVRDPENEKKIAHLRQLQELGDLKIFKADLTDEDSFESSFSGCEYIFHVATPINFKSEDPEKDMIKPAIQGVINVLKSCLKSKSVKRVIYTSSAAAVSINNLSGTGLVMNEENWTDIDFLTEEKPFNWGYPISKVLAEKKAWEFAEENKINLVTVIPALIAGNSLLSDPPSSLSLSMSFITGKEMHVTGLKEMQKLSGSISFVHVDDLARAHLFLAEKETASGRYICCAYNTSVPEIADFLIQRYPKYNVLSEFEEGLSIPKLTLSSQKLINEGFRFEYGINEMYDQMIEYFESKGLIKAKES

Oc1cc(O)c2c(c1)O[C@H](c1ccc(O)c(O)c1)[C@@H](O)C2 [(+)-catechin]
conversion of flavan-3-ol into its isomer on incubation with MtBAN (MtBAN): does not produce
conversion of flavan-3-ol into its isomer on incubation with AtBAN (AtBAN): does not produce

Oc1cc(O)c2c(c1)O[C@H](c1ccc(O)c(O)c1)[C@H](O)C2 [(−) epicatechin, (−)-epicatechin]
conversion of flavan-3-ol into its isomer on incubation with MtBAN (MtBAN): does not produce
conversion of flavan-3-ol into its isomer on incubation with AtBAN (AtBAN): does not produce

NC(=O)C1=CN([C@@H]2O[C@H](COP(=O)(O)OP(=O)(O)OC[C@H]3O[C@@H](n4cnc5c(N)ncnc54)[C@H](O)[C@@H]3O)[C@@H](O)[C@H]2O)C=CC1 [NADH]
conversion with NADH relative to the level achieved with NADPH at the same concentration (MtBAN; NADH 2 mM final concentration substituted for NADPH): approximately 50%

NC(=O)C1=CN([C@@H]2O[C@H](COP(=O)(O)OP(=O)(O)OC[C@H]3O[C@@H](n4cnc5c(N)ncnc54)[C@H](OP(=O)(O)O)[C@@H]3O)[C@@H](O)[C@H]2O)C=CC1 [NADPH]
co-factor dependence of conversion of anthocyanidins to flavan-3-ols (MtBAN; NADPH omitted from the enzyme assay mixtures): NADPH-dependent

Oc1cc(O)c2cc(O)c(-c3ccc(O)c(O)c3)[o+]c2c1.[Cl-] [cyanidin, cyanidin chloride]
reduction of anthocyanidin substrate to flavan-3-ol product(s) by MtBAN (MtBAN): reducing cyanidin to the corresponding flavan-3-ols, catechin and epicatechin
conversion of cyanidin by extract with NADPH (Anthocyanidin reductase [1]): producing epicatechin
conversion of cyanidin by extract with NADPH (Anthocyanidin reductase [2]): producing epicatechin
conversion of cyanidin by extract with NADPH (Anthocyanidin reductase [3]): producing epicatechin
conversion of cyanidin by extract with NADPH ([4]; ANR from flowers): producing epicatechin
conversion of cyanidin by extract with NADPH ([4]; ANR from leaves): producing epicatechin
conversion of cyanidin by extract with NADPH ([4]; ANR from young pods): producing epicatechin
reduction of anthocyanidin substrate to flavan-3-ol product by AtBAN (AtBAN): reduction of cyanidin to epicatechin

Oc1cc(O)c2cc(O)c(-c3cc(O)c(O)c(O)c3)[o+]c2c1 [delphinidin, delphinidin chloride]
reduction of anthocyanidin substrate to flavan-3-ol product(s) by MtBAN (MtBAN): catalyzed the reduction of delphinidin into putative gallo-catechin and epi-gallocatechin
reduction of anthocyanidin substrate to flavan-3-ol product by AtBAN (AtBAN): delphinidin into gallocatechin

Oc1ccc(-c2[o+]c3cc(O)cc(O)c3cc2O)cc1 [pelargonidin, Pelargonidin chloride]
reduction of anthocyanidin substrate to flavan-3-ol product(s) by MtBAN (MtBAN): tentatively identified as epi-afzelechin
reduction of anthocyanidin substrate to flavan-3-ol product by AtBAN (AtBAN): pelargonidin into epi-alfzelechin

leucoanthocyanidins
LAR activity with recombinant MtBAN (MtBAN; [5]): no LAR activity was observed
LAR activity with recombinant AtBAN (AtBAN; [5]): no LAR activity was observed
